# Reference: PubChem BioAssay AID2060624 (Molecular Pharmacology Branch, DTP, NCI, 2025)
# System: 217524-143-R1-J4-PDC spheroids with HUVEC/MSC, viability
# Assay: Anticancer human tumor 217524-143-R1-J4-PDC patient-derived pancreatic carcinoma cell line growth inhibition [CLK]
# Conditions: for IC50: curve of first compound; for viability, T/C: stronger effect = lower value
# Summary of the method: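 Patient-derived tumor cells grown as complex spheroids with HUVEC endothelial cells and mesenchymal stem cells, treated with drug combinations. Concentrations descend in half-log steps from near clinical Cmax, or from 10 microM if Cmax unknown.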
# 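Note: spheroids exposed to agents for seven days before reading.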
# 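Throughout, for viability, T/C: 100% = DMSO vehicle control viability.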
smiles,measurement,setting,value
CC(C)CC(NC(=O)C(Cc1ccccc1)NC(=O)c1cnccn1)B(O)O (centres undefined) + CN1CCN(c2cc(C(=O)Nc3cc4cc(-c5cnn(C)c5)ccc4cn3)ccn2)CC1,IC50,second compound 0.0316 µM,0.00303 µM
same,IC50,second compound 0.1 µM,0.00229 µM
same,IC50,second compound 0.316 µM,< 0.000949 µM
same,IC50,second compound 1 µM,< 0.000949 µM
same,IC50,second compound 3.16 µM,< 0.000949 µM
same,IC50,second compound 10 µM,< 0.000949 µM
same,"viability, T/C","second compound 0.0316 µM, first compound 0.000949 µM",89.7%
same,"viability, T/C","second compound 0.0316 µM, first compound 0.003 µM",49.9%
same,"viability, T/C","second compound 0.0316 µM, first compound 0.00949 µM",22.4%
same,"viability, T/C","second compound 0.0316 µM, first compound 0.03 µM",6.55%
same,"viability, T/C","second compound 0.0316 µM, first compound 0.0949 µM",5.49%
same,"viability, T/C","second compound 0.0316 µM, first compound 0.3 µM",2.12%
same,"viability, T/C","second compound 0.1 µM, first compound 0.000949 µM",58.3%
same,"viability, T/C","second compound 0.1 µM, first compound 0.003 µM",47.5%
same,"viability, T/C","second compound 0.1 µM, first compound 0.00949 µM",14.4%
same,"viability, T/C","second compound 0.1 µM, first compound 0.03 µM",5.38%
same,"viability, T/C","second compound 0.1 µM, first compound 0.0949 µM",3.86%
same,"viability, T/C","second compound 0.1 µM, first compound 0.3 µM",2.25%
same,"viability, T/C","second compound 0.316 µM, first compound 0.000949 µM",25%
same,"viability, T/C","second compound 0.316 µM, first compound 0.003 µM",24%
same,"viability, T/C","second compound 0.316 µM, first compound 0.00949 µM",3.44%
same,"viability, T/C","second compound 0.316 µM, first compound 0.03 µM",1.85%
same,"viability, T/C","second compound 0.316 µM, first compound 0.0949 µM",1.33%
same,"viability, T/C","second compound 0.316 µM, first compound 0.3 µM",0.89%
same,"viability, T/C","second compound 1 µM, first compound 0.000949 µM",1.64%
same,"viability, T/C","second compound 1 µM, first compound 0.003 µM",0.62%
same,"viability, T/C","second compound 1 µM, first compound 0.00949 µM",0.77%
same,"viability, T/C","second compound 1 µM, first compound 0.03 µM",0.46%
same,"viability, T/C","second compound 1 µM, first compound 0.0949 µM",0.4%
same,"viability, T/C","second compound 1 µM, first compound 0.3 µM",0.42%
same,"viability, T/C","second compound 3.16 µM, first compound 0.000949 µM",0.67%
same,"viability, T/C","second compound 3.16 µM, first compound 0.003 µM",0.98%
same,"viability, T/C","second compound 3.16 µM, first compound 0.00949 µM",2.38%
same,"viability, T/C","second compound 3.16 µM, first compound 0.03 µM",1.54%
same,"viability, T/C","second compound 3.16 µM, first compound 0.0949 µM",0.63%
same,"viability, T/C","second compound 3.16 µM, first compound 0.3 µM",0.66%
same,"viability, T/C","second compound 10 µM, first compound 0.000949 µM",0.3%
same,"viability, T/C","second compound 10 µM, first compound 0.003 µM",0.19%
same,"viability, T/C","second compound 10 µM, first compound 0.00949 µM",0.47%
same,"viability, T/C","second compound 10 µM, first compound 0.03 µM",0.32%
same,"viability, T/C","second compound 10 µM, first compound 0.0949 µM",0.23%
same,"viability, T/C","second compound 10 µM, first compound 0.3 µM",0.22%
CC1(C)CCC(CN2CCN(c3ccc(C(=O)NS(=O)(=O)c4ccc(NCC5CCOCC5)c([N+](=O)[O-])c4)c(Oc4cnc5[nH]ccc5c4)c3)CC2)=C(c2ccc(Cl)cc2)C1 + CN1CCN(c2cc(C(=O)Nc3cc4cc(-c5cnn(C)c5)ccc4cn3)ccn2)CC1,IC50,second compound 0.0316 µM,5.02 µM
same,IC50,second compound 0.1 µM,3.82 µM
same,IC50,second compound 0.316 µM,< 0.0316 µM
same,IC50,second compound 1 µM,< 0.0316 µM
same,IC50,second compound 3.16 µM,< 0.0316 µM
same,IC50,second compound 10 µM,< 0.0316 µM
same,"viability, T/C","second compound 0.0316 µM, first compound 0.0316 µM",83.2%
same,"viability, T/C","second compound 0.0316 µM, first compound 0.1 µM",68.9%
same,"viability, T/C","second compound 0.0316 µM, first compound 0.316 µM",89.4%
same,"viability, T/C","second compound 0.0316 µM, first compound 1 µM",88.4%
same,"viability, T/C","second compound 0.0316 µM, first compound 3.16 µM",77.1%
same,"viability, T/C","second compound 0.0316 µM, first compound 10 µM",9.4%
same,"viability, T/C","second compound 0.1 µM, first compound 0.0316 µM",55.5%
same,"viability, T/C","second compound 0.1 µM, first compound 0.1 µM",55%
same,"viability, T/C","second compound 0.1 µM, first compound 0.316 µM",55.1%
same,"viability, T/C","second compound 0.1 µM, first compound 1 µM",65.7%
same,"viability, T/C","second compound 0.1 µM, first compound 3.16 µM",60.2%
same,"viability, T/C","second compound 0.1 µM, first compound 10 µM",7.83%
same,"viability, T/C","second compound 0.316 µM, first compound 0.0316 µM",19.1%
same,"viability, T/C","second compound 0.316 µM, first compound 0.1 µM",20.4%
same,"viability, T/C","second compound 0.316 µM, first compound 0.316 µM",21.5%
same,"viability, T/C","second compound 0.316 µM, first compound 1 µM",22.8%
same,"viability, T/C","second compound 0.316 µM, first compound 3.16 µM",20.9%
same,"viability, T/C","second compound 0.316 µM, first compound 10 µM",6.29%
same,"viability, T/C","second compound 1 µM, first compound 0.0316 µM",2.02%
same,"viability, T/C","second compound 1 µM, first compound 0.1 µM",1.96%
same,"viability, T/C","second compound 1 µM, first compound 0.316 µM",1.65%
same,"viability, T/C","second compound 1 µM, first compound 1 µM",1.7%
same,"viability, T/C","second compound 1 µM, first compound 3.16 µM",1.3%
same,"viability, T/C","second compound 1 µM, first compound 10 µM",1.35%
same,"viability, T/C","second compound 3.16 µM, first compound 0.0316 µM",0.59%
same,"viability, T/C","second compound 3.16 µM, first compound 0.1 µM",0.61%
same,"viability, T/C","second compound 3.16 µM, first compound 0.316 µM",0.76%
same,"viability, T/C","second compound 3.16 µM, first compound 1 µM",0.45%
same,"viability, T/C","second compound 3.16 µM, first compound 3.16 µM",0.49%
same,"viability, T/C","second compound 3.16 µM, first compound 10 µM",0.25%
same,"viability, T/C","second compound 10 µM, first compound 0.0316 µM",0.16%
same,"viability, T/C","second compound 10 µM, first compound 0.1 µM",0.16%
same,"viability, T/C","second compound 10 µM, first compound 0.316 µM",0.19%
same,"viability, T/C","second compound 10 µM, first compound 1 µM",0.26%
same,"viability, T/C","second compound 10 µM, first compound 3.16 µM",0.24%
same,"viability, T/C","second compound 10 µM, first compound 10 µM",0.17%
